Source: patent US8673906B2, “Chromenone derivatives” (AstraZeneca AB, priority 2010, dated 2014)

target: PI3Kβ (Homo sapiens (Human), UniProt P42338); test: In vitro enzyme inhibition assay (Kinase Glo based enzyme activity assay); format: biochemical; details: Test (a), human recombinant enzyme; read-out: PI3Kβ inhibition, IC50
Description: (a) In Vitro Enzyme Inhibition Assay
The inhibition of PI3Kβ, PI3Kα, PI3Kγ and PI3Kδ was evaluated in a Kinase Glo based enzyme activity assay using human recombinant enzymes. The assay measures depletion of ATP after incubation with enzyme, PIP2 and ATP plus compound. ATP at the end of the reaction is detected by addition of Kinase Glo reagent, in this the Ultra Glo™ luciferase (Promega) uses the ATP as a substrate to catalyze the mono-oxygenation of luciferin and the generation of light. A direct relationship exists between the luminescence measured with the Kinase-Glo Plus Reagent and the amount of ATP remaining in a completed kinase reaction and luminescence is inversely related to kinase activity. Twelve different compound concentrations were tested and raw data from the inhibition of PI3 Kb, PI3Kα, PI3Kγ and PI3Kδ was plotted versus inhibitor concentration.
Compounds in 100% DMSO were added to assay plates by acoustic dispensing. PI3Kβ was added in a Tris buffer (50 mM Tris pH7.4, 0.05% CHAPS, 2.1 mM DTT, and 10 mM MgCl2) and allowed to preincubate with compound for 20 minutes prior to addition of substrate solution containing PIP2 and ATP. The enzyme reaction was stopped after 80 minutes by the addition of Kinase Glo detection solution. Plates were left for 30 minutes at room temperature then read on a Pherastar Instrument (Luminescence ATP 384 program) setting gain on max well. The final concentration of DMSO, ATP and PIP2 in the assay were, 1%, 80 μM, and 80 μM respectively.
IC50 values were calculated using a log curve fitting to a non-linear regression package, fitting raw data to inhibitor concentration.

PI3Kβ, sequence (P42338 whole entry): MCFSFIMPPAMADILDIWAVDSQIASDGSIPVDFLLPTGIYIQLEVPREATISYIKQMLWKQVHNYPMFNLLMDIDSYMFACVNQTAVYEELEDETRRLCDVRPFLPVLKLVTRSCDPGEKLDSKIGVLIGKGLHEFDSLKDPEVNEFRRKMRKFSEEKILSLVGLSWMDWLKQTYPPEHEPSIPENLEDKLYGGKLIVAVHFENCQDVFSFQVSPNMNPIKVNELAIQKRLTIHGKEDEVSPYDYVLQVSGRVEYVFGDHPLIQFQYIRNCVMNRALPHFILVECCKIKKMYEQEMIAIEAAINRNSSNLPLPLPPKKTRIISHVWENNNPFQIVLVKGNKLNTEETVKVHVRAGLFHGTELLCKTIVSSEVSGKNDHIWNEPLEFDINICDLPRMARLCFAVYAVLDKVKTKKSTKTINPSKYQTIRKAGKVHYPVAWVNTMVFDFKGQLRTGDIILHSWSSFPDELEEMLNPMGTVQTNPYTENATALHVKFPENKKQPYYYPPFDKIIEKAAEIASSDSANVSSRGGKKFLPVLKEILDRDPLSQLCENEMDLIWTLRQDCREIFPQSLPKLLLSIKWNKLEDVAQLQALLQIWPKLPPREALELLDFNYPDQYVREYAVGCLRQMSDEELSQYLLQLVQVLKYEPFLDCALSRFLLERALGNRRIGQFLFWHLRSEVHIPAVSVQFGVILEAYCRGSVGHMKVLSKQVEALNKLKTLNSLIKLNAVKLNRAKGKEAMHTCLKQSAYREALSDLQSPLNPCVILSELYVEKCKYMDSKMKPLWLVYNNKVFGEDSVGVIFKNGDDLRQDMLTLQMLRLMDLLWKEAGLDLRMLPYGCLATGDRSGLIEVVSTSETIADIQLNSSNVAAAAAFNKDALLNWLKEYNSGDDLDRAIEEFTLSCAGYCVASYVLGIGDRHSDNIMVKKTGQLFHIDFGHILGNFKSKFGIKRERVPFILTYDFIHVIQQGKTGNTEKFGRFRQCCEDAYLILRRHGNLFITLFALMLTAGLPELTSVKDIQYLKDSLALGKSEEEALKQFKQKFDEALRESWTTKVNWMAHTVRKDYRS
PI3Kβ, sequence (P27986 whole entry partner): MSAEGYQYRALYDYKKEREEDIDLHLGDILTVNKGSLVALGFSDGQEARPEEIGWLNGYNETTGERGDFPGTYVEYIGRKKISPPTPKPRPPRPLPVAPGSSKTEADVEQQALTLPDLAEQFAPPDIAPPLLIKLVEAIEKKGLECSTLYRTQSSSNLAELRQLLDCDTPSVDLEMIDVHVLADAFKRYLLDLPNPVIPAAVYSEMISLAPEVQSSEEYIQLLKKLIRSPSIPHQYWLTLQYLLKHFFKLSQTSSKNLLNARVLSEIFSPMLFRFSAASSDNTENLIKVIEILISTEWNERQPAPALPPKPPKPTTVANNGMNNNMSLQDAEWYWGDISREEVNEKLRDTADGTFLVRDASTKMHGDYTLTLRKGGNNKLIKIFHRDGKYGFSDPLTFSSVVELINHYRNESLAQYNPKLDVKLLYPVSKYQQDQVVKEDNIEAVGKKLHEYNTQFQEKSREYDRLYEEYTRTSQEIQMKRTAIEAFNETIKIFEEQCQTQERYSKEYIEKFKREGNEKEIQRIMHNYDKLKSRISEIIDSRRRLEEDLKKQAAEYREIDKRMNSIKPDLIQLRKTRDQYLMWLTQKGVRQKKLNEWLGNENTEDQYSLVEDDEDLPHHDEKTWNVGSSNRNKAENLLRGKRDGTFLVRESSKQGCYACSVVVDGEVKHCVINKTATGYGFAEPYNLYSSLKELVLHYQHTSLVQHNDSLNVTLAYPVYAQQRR

Q: With CC(Nc1cc(F)cc(F)c1)c1cc(C(=O)N2CCN(C)CC2)cc2c(=O)cc(N3CCOCC3)oc12 (stereo not drawn) [Example 4.03, 8-(1-(3,5-difluorophenylamino)ethyl)-6-(4-methylpiperazine-1-carbonyl)-2-morpholino-4H-chromen-4-one] as the compound, how does the IC50 read?
A: 4 nM

Q: With CC(Nc1cc(F)cc(F)c1)c1cc(C(=O)N2CCNCC2)cc2c(=O)cc(N3CCOCC3)oc12 (stereo not drawn) [Example 4.04, 8-(1-(3,5-difluorophenylamino)ethyl)-2-morpholino-6-(piperazine-1-carbonyl)-4H-chromen-4-one] as the compound, how does the IC50 read?
A: 4 nM

Q: How did the IC50 turn out when CC(Nc1cc(F)cc(F)c1)c1cc(C(=O)N2CCSCC2)cc2c(=O)cc(N3CCOCC3)oc12 (stereo not drawn) [Example 4.05, 8-(1-(3,5-difluorophenylamino)ethyl)-2-morpholino-6-(thiomorpholine-4-carbonyl)-4H-chromen-4-one] was run?
A: 8 nM

Q: For CC(Nc1cc(F)cc(F)c1)c1cc(C(=O)N2CCCCCC2)cc2c(=O)cc(N3CCOCC3)oc12 (stereo not drawn) [Example 4.06, 6-(azepane-1-carbonyl)-8-(1-(3,5-difluorophenylamino)ethyl)-2-morpholino-4H-chromen-4-one], which IC50 is on record?
A: 4 nM

Q: How did the IC50 turn out when CC(Nc1cc(F)cc(F)c1)c1cc(C(=O)N(C)CCO)cc2c(=O)cc(N3CCOCC3)oc12 (stereo not drawn) [Example 4.07, 8-(1-(3,5-difluorophenylamino)ethyl)-N-(2-hydroxyethyl)-N-methyl-2-morpholino-4-oxo-4H-chromene-6-carboxamide] was run?
A: 4 nM

Q: Which IC50 does the source give for CC(Nc1cc(F)cc(F)c1)c1cc(C(=O)N2CCC(O)CC2)cc2c(=O)cc(N3CCOCC3)oc12 (stereo not drawn) [Example 4.09, 8-(1-(3,5-difluorophenylamino)ethyl)-6-(4-hydroxypiperidine-1-carbonyl)-2-morpholino-4H-chromen-4-one] here?
A: 3 nM

Q: Which IC50 does the source give for CC(Nc1cc(F)cc(F)c1)c1cc(C(=O)N2CCCCC2)cc2c(=O)cc(N3CCOCC3)oc12 (stereo not drawn) [Example 4.10, 8-(1-(3,5-difluorophenylamino)ethyl)-2-morpholino-6-(piperidine-1-carbonyl)-4H-chromen-4-one] here?
A: 5 nM

Q: For CCN(C)C(=O)c1cc(C(C)Nc2cc(F)cc(F)c2)c2oc(N3CCOCC3)cc(=O)c2c1 (stereo not drawn) [Example 4.11, 8-(1-(3,5-difluorophenylamino)ethyl)-N-ethyl-N-methyl-2-morpholino-4-oxo-4H-chromene-6-carboxamide], which IC50 is on record?
A: 2 nM

Q: Which IC50 does the source give for CC(Nc1cc(F)cc(F)c1)c1cc(C(=O)N2CC(O)C2)cc2c(=O)cc(N3CCOCC3)oc12 (stereo not drawn) [Example 4.12, 8-(1-(3,5-difluorophenylamino)ethyl)-6-(3-hydroxyazetidine-1-carbonyl)-2-morpholino-4H-chromen-4-one] here?
A: 4 nM

Q: With CC(Nc1cc(F)cc(F)c1)c1cc(C(=O)N2CC(F)C2)cc2c(=O)cc(N3CCOCC3)oc12 (stereo not drawn) [Example 4.13, 8-(1-(3,5-difluorophenylamino)ethyl)-6-(3-fluoroazetidine-1-carbonyl)-2-morpholino-4H-chromen-4-one] as the compound, how does the IC50 read?
A: 9 nM

Q: CC(Nc1cc(F)cc(F)c1)c1cc(C(=O)NCCO)cc2c(=O)cc(N3CCOCC3)oc12 (stereo not drawn) [Example 4.14, 8-(1-(3,5-difluorophenylamino)ethyl)-N-(2-hydroxyethyl)-2-morpholino-4-oxo-4H-chromene-6-carboxamide] was tested. Which IC50 did it give?
A: 4 nM

Q: How did the IC50 turn out when COCCNC(=O)c1cc(C(C)Nc2cc(F)cc(F)c2)c2oc(N3CCOCC3)cc(=O)c2c1 (stereo not drawn) [Example 4.15, 8-(1-(3,5-difluorophenylamino)ethyl)-N-(2-methoxyethyl)-2-morpholino-4-oxo-4H-chromene-6-carboxamide] was run?
A: 4 nM

Q: Which IC50 does the source give for CCCNC(=O)c1cc(C(C)Nc2cc(F)cc(F)c2)c2oc(N3CCOCC3)cc(=O)c2c1 (stereo not drawn) [Example 4.16, 8-(1-(3,5-difluorophenylamino)ethyl)-2-morpholino-4-oxo-N-propyl-4H-chromene-6-carboxamide] here?
A: 9 nM

Q: With CCNC(=O)c1cc(C(C)Nc2cc(F)cc(F)c2)c2oc(N3CCOCC3)cc(=O)c2c1 (stereo not drawn) [Example 4.17, 8-(1-(3,5-difluorophenylamino)ethyl)-N-ethyl-2-morpholino-4-oxo-4H-chromene-6-carboxamide] as the compound, how does the IC50 read?
A: 5 nM

Q: Which IC50 does the source give for CC(Nc1cc(F)cc(F)c1)c1cc(C(=O)NCCF)cc2c(=O)cc(N3CCOCC3)oc12 (stereo not drawn) [Example 4.18, 8-(1-(3,5-difluorophenylamino)ethyl)-N-(2-fluoroethyl)-2-morpholino-4-oxo-4H-chromene-6-carboxamide] here?
A: 4 nM

Q: COCCCNC(=O)c1cc(C(C)Nc2cc(F)cc(F)c2)c2oc(N3CCOCC3)cc(=O)c2c1 (stereo not drawn) [Example 4.19, 8-(1-(3,5-difluorophenylamino)ethyl)-N-(3-methoxypropyl)-2-morpholino-4-oxo-4H-chromene-6-carboxamide] was tested. Which IC50 did it give?
A: 23 nM

Q: CC(Nc1cc(F)cc(F)c1)c1cc(C(=O)N2CCC[C@@H]2CO)cc2c(=O)cc(N3CCOCC3)oc12 (stereo partly drawn) [Example 4.20, 8-(1-(3,5-difluorophenylamino)ethyl)-6-((R)-2-(hydroxymethyl)pyrrolidine-1-carbonyl)-2-morpholino-4H-chromen-4-one] was tested. Which IC50 did it give?
A: 5 nM

Q: With CC(Nc1cc(F)cc(F)c1)c1cc(C(=O)N2CCC[C@H]2CO)cc2c(=O)cc(N3CCOCC3)oc12 (stereo partly drawn) [Example 4.21, 8-(1-(3,5-difluorophenylamino)ethyl)-6-((S)-2-(hydroxymethyl)pyrrolidine-1-carbonyl)-2-morpholino-4H-chromen-4-one] as the compound, how does the IC50 read?
A: 4 nM

Q: Which IC50 does the source give for CNC(=O)c1cc(C(C)Nc2cc(F)cc(F)c2)c2oc(N3CCOCC3)cc(=O)c2c1 (stereo not drawn) [Example 4.22, 8-(1-(3,5-difluorophenylamino)ethyl)-N-methyl-2-morpholino-4-oxo-4H-chromene-6-carboxamide] here?
A: 4 nM

Q: With CC(Nc1cc(F)cc(F)c1)c1cc(C(=O)NCC2CC2)cc2c(=O)cc(N3CCOCC3)oc12 (stereo not drawn) [Example 4.23, N-(cyclopropylmethyl)-8-(1-(3,5-difluorophenylamino)ethyl)-2-morpholino-4-oxo-4H-chromene-6-carboxamide] as the compound, how does the IC50 read?
A: 3 nM

Q: COCCN(C)C(=O)c1cc(C(C)Nc2cc(F)cc(F)c2)c2oc(N3CCOCC3)cc(=O)c2c1 (stereo not drawn) [Example 4.24, 8-(1-(3,5-difluorophenylamino)ethyl)-N-(2-methoxyethyl)-N-methyl-2-morpholino-4-oxo-4H-chromene-6-carboxamide] was tested. Which IC50 did it give?
A: 4 nM

Q: CC(Nc1cc(F)cc(F)c1)c1cc(C(=O)N2CCCOCC2)cc2c(=O)cc(N3CCOCC3)oc12 (stereo not drawn) [Example 4.25, 8-(1-(3,5-difluorophenylamino)ethyl)-2-morpholino-6-(1,4-oxazepane-4-carbonyl)-4H-chromen-4-one] was tested. Which IC50 did it give?
A: 5 nM

Q: COC1CCN(C(=O)c2cc(C(C)Nc3cc(F)cc(F)c3)c3oc(N4CCOCC4)cc(=O)c3c2)CC1 (stereo not drawn) [Example 4.26, 8-(1-(3,5-difluorophenylamino)ethyl)-6-(4-methoxypiperidine-1-carbonyl)-2-morpholino-4H-chromen-4-one] was tested. Which IC50 did it give?
A: 4 nM

Q: CC(c1cc(C(=O)N2CCC(O)CC2)cc2c(=O)cc(N3CCOCC3)oc12)N(C)c1cc(F)cc(F)c1 (stereo not drawn) [Example 5.01, 8-(1-((3,5-difluorophenyl)(methyl)amino)ethyl)-6-(4-hydroxypiperidine-1-carbonyl)-2-morpholino-4H-chromen-4-one] was tested. Which IC50 did it give?
A: 8 nM

Q: CC(c1cc(C(=O)N2CCC(O)C2)cc2c(=O)cc(N3CCOCC3)oc12)N(C)c1cc(F)cc(F)c1 (stereo not drawn) [Example 5.02, 8-(1-((3,5-difluorophenyl)(methyl)amino)ethyl)-6-(3-hydroxypyrrolidine-1-carbonyl)-2-morpholino-4H-chromen-4-one] was tested. Which IC50 did it give?
A: 7 nM

Q: Which IC50 does the source give for CC(c1cc(C(=O)N2CCC[C@@H]2CO)cc2c(=O)cc(N3CCOCC3)oc12)N(C)c1cc(F)cc(F)c1 (stereo partly drawn) [Example 5.03, 8-(1-((3,5-difluorophenyl)(methyl)amino)ethyl)-6-((R)-2-(hydroxymethyl)pyrrolidine-1-carbonyl)-2-morpholino-4H-chromen-4-one] here?
A: 7 nM

Q: Which IC50 does the source give for CC(c1cc(C(=O)N2CCCC2)cc2c(=O)cc(N3CCOCC3)oc12)N(C)c1cc(F)cc(F)c1 (stereo not drawn) [Example 6.0, 8-(1-((3,5-difluorophenyl)(methyl)amino)ethyl)-2-morpholino-6-(pyrrolidine-1-carbonyl)-4H-chromen-4-one] here?
A: 5 nM

Q: How did the IC50 turn out when CC(Nc1ccc(F)cc1)c1cc(C(=O)N(C)C)cc2c(=O)cc(N3CCO[C@H](C)C3)oc12 (stereo partly drawn) [Example 9.0, 8-(1-(4-fluorophenylamino)ethyl)-N,N-dimethyl-2-((R)-2-methylmorpholino)-4-oxo-4H-chromene-6-carboxamide] was run?
A: 5 nM

Q: With CC(Nc1cc(F)cc(F)c1)c1cc(C(=O)N(C)C)cc2c(=O)cc(N3CCO[C@H](C)C3)oc12 (stereo partly drawn) [Example 9.01, 8-(1-(3,5-difluorophenylamino)ethyl)-N,N-dimethyl-2-((R)-2-methylmorpholino)-4-oxo-4H-chromene-6-carboxamide] as the compound, how does the IC50 read?
A: 4 nM

Q: For CC(Nc1cc(F)cc(F)c1)c1cc(C(=O)N(C)C)cc2c(=O)cc(N3CCO[C@@H](C)C3)oc12 (stereo partly drawn) [Example 9.02, 8-(1-(3,5-difluorophenylamino)ethyl)-N,N-dimethyl-2-((S)-2-methylmorpholino)-4-oxo-4H-chromene-6-carboxamide], which IC50 is on record?
A: 11 nM
